# Experimental data taken from the supplement of paper PMC11061612.
# Experiments:
# Assay in all cases: combination Emax (second highest fraction inhibited in the dose matrix, 72 h); higher = more inhibition; extreme values may be limits of the assay
# [1] = tested on: CAL-51 (Breast Carcinoma)
# Method in brief: (§1)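 Cell lines grown in DMEM/F12 or RPMI with 10% FBS were plated in 1536-well plates and held 24 hours at 37°C, 5% CO2 before 72 hours of exposure to two-drug dose matrices, with DMSO typically at 0.2%. CellTiter-Glo 2.0 luminescence gave viability, which was converted to inhibition. Vehicle wells were set to 0 and blank wells to 1. Combination Emax is the second-highest inhibition in the matrix, and Bliss excess is the observed combination effect minus the expected EA + EB − EA·EB, where EA and EB are the single-agent effects.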
# [2] = tested on: HCC-15 (Squamous Cell Lung Carcinoma)
# Method in brief: as §1
# [3] = tested on: UMC-11 (Other Solid Carcinomas)
# Method in brief: as §1
# [4] = tested on: HDLM-2 (Hodgkin's Lymphoma)
# Method in brief: as §1
# [5] = tested on: RT-112 (Bladder Carcinoma)
# Method in brief: as §1
# [6] = tested on: NCI-H69 (Small Cell Lung Carcinoma)
# Method in brief: as §1
# [7] = tested on: HARA (Squamous Cell Lung Carcinoma)
# Method in brief: as §1
# [8] = tested on: OVCAR-8 (Ovarian Carcinoma)
# Method in brief: as §1
# [9] = tested on: OC-314 (Ovarian Carcinoma)
# Method in brief: as §1
# [10] = tested on: HO-1-u-1 (Oral Cavity Carcinoma)
# Method in brief: as §1
# NB14 (Neuroblastoma) = tested on: NB14 (Neuroblastoma)
# Method in brief: as §1
# [11] = tested on: SW1271 (Small Cell Lung Carcinoma)
# Method in brief: as §1
# [12] = tested on: KYSE-410 (Esophageal Squamous Cell Carcinoma)
# Method in brief: as §1
# [13] = tested on: K5 (Thyroid Gland Carcinoma)
# Method in brief: as §1
# [14] = tested on: SW1116 (Colorectal Carcinoma)
# Method in brief: as §1
# [15] = tested on: LoVo (Colorectal Carcinoma)
# Method in brief: as §1
# [16] = tested on: MDA-MB-468 (Breast Carcinoma)
# Method in brief: as §1
# [17] = tested on: RPMI-6666 (Non-Cancerous)
# Method in brief: as §1
# [18] = tested on: CAL-54 (Kidney Carcinoma)
# Method in brief: as §1
# NCI-H2795 (Mesothelioma) = tested on: NCI-H2795 (Mesothelioma)
# Method in brief: as §1
SMILES,combination Emax [1],combination Emax [2],combination Emax [3],combination Emax [4],combination Emax [5],combination Emax [6],combination Emax [7],combination Emax [8],combination Emax [9],combination Emax [10],combination Emax (NB14 (Neuroblastoma)),combination Emax [11],combination Emax [12],combination Emax [13],combination Emax [14],combination Emax [15],combination Emax [16],combination Emax [17],combination Emax [18],combination Emax (NCI-H2795 (Mesothelioma))
"CC1(C)CCC(CN2CCN(c3ccc(C(=O)NS(=O)(=O)c4ccc(NCC5CCOCC5)c([N+](=O)[O-])c4)c(Oc4cnc5[nH]ccc5c4)c3)CC2)=C(c2ccc(Cl)cc2)C1 [Venetoclax] + Cc1cc2ncnn2cc1Nc1ncc2c(n1)n(C1CCOCC1)c(=O)n2C [AZD7648] (first compound max 1 µM, 7x7, partner max 10 µM)",0.289,0.253,0.414,0.431,0.257,0.657,0.572,0.229,0.251,0.305,0.974,0.202,0.23,0.394,0.151,0.443,0.397,0.959,0.256,0.471
"Cc1nc(Nc2ncc(C(=O)Nc3c(C)cccc3Cl)s2)cc(N2CCN(CCO)CC2)n1 [Dasatinib] + CC(=O)Nc1cccc(-n2c(=O)n(C3CC3)c(=O)c3c(Nc4ccc(I)cc4F)n(C)c(=O)c(C)c32)c1 [Trametinib] (first compound max 2 µM, 7x7, partner max 1 µM)",0.43,0.853,0.136,0.12,0.584,0.124,0.531,0.671,0.781,0.713,0.465,0.928,0.546,0.929,0.757,0.801,0.621,0.686,0.958,0.972
"CC1(C)CCC(CN2CCN(c3ccc(C(=O)NS(=O)(=O)c4ccc(NCC5CCOCC5)c([N+](=O)[O-])c4)c(Oc4cnc5[nH]ccc5c4)c3)CC2)=C(c2ccc(Cl)cc2)C1 [Venetoclax] + C[C@@H]1COCCN1C2=NC(=NC(=C2)C3(CC3)[S@](=N)(=O)C)C4=C5C=CNC5=NC=C4 [AZD6738] (first compound max 1 µM, 7x7, partner max 10 µM)",0.909,0.191,0.619,0.683,0.842,0.618,0.804,0.712,0.897,0.853,1,0.612,0.372,0.616,0.329,0.767,0.624,0.971,0.768,0.622
"NC1(C(=O)N[C@@H](CCO)c2ccc(Cl)cc2)CCN(c2ncnc3[nH]ccc23)CC1 [Capivasertib] + CC(C)n1c(=O)n(C)c2cnc3cc(F)c(-c4ccc(OCCCN5CCCCC5)nc4)cc3c21 [AZD1390] (first compound max 10 µM, 7x7, partner max 0.3 µM)",0.488,0.26,0.201,0.298,0.255,0.514,0.514,0.255,0.421,0.746,0.381,0.371,0.327,0.405,0.215,0.586,0.518,0.715,0.466,0.394
"CC(=O)c1c(C)c2cnc(Nc3ccc(N4CCNCC4)cn3)nc2n(C2CCCC2)c1=O [Palbociclib] + CC1(C)CCC(CN2CCN(c3ccc(C(=O)NS(=O)(=O)c4ccc(NCC5CCOCC5)c([N+](=O)[O-])c4)c(Oc4cnc5[nH]ccc5c4)c3)CC2)=C(c2ccc(Cl)cc2)C1 [Venetoclax] (first compound max 10 µM, 7x7, partner max 1 µM)",0.219,0.177,0.507,0.731,0.279,0.764,0.496,0.19,0.334,0.271,0.734,0.214,0.136,0.452,0.04,0.484,0.261,0.797,0.527,0.351
"Cc1c2c(nn1C)CSCc1cc(n(C)n1)CSc1cc(c3ccccc3c1)OCCCc1c(C(=O)O)n(C)c3c-2c(Cl)ccc13 [AZD5991] + C[C@@H]1COCCN1C2=NC(=NC(=C2)C3(CC3)[S@](=N)(=O)C)C4=C5C=CNC5=NC=C4 [AZD6738] (first compound max 1 µM, 7x7, partner max 10 µM)",0.899,0.297,0.828,0.992,0.958,0.335,0.776,0.783,0.832,0.844,0.989,0.604,0.403,0.574,0.281,0.889,0.768,0.889,0.706,0.939
"Cc1c2c(nn1C)CSCc1cc(n(C)n1)CSc1cc(c3ccccc3c1)OCCCc1c(C(=O)O)n(C)c3c-2c(Cl)ccc13 [AZD5991] + C=CCn1c(=O)c2cnc(Nc3ccc(N4CCN(C)CC4)cc3)nc2n1-c1cccc(C(C)(C)O)n1 [AZD1775] (first compound max 1 µM, partner max 1 µM)",0.915,0.55,0.784,1,0.981,0.266,0.89,0.865,0.554,0.677,1,0.582,0.625,0.482,0.378,0.856,0.615,0.93,0.702,0.881
